The target of experiment [1] is T1, Wee1 kinase (Homo sapiens, UniProt P30291).
T1 construct: made in house; host or cells: Sf9 insect cells (recombinant baculovirus)
The experiment in a line: Wee1 kinase inhibitory effect (Pharmacological Test 1). In kind it is biochemical. As to conditions: GST-tagged Wee1 kinase, Poly(Lys, Tyr) substrate, 10 μM ATP, 30° C. for 30 minutes. An excerpt: Pharmacological Test 1 (Wee1 Kinase Inhibitory Effect)
(1) Purification of Wee1 Kinase
A cDNA of Wee1 kinase with […] (GST) fused at the amino terminal thereof was inserted into a baculovirus expression vector to construct a recombinant baculovirus, with which cells of an insect cell line Sf9 were infected to overexpress the target protein. The infected cells were collected and lysed, and then the GST-tagged Wee1 kinase protein was adsorbed to a glutathione column and eluted from the column with glutathione, and the active fraction was desalted in a desalting column to give a purified enzyme.
(2) Measurement of Wee1 Kinase Activity
In measurement of the Wee1 kinase activity, a synthetic peptide, Poly(Lys, Tyr) hydrobromide (Lys:Tyr (4:1)) purchased from Sigma was used as the substrate.
The amount of the reaction mixture was 21.1 μL; and the composition of the reaction buffer was 50 mM Tris-HCl buffer (pH 7.4)/10 mM magnesium chloride/1 mM dithiothreitol. The purified Wee1 kinase, 2.5 μg of the substrate peptide, 10 μM of non-labeled adenosine triphosphate (ATP) and 1 μCi of [γ-^33P]-labeled ATP (2500 Ci/mmol or more) were added to the reaction buffer, and the resulting mixture was incubated at 30° C. for 30 minutes. Thereafter, 10 μL of 350 mM phosphate buffer was added to the reaction system to stop the reaction. The substrate peptide was adsorbed on a P81 paper filter 96-well plate and the plate was washed several times with 130 mM phosphate buffer, and the radioactivity thereof was counted using a liquid scintillation counter. The [γ-^33P]-labeled ATP was purchased from Amersham Bioscience, Ltd.
The addition of a test compound to the reaction system was carried out by preparing a series of dilutions of the compound with dimethyl sulfoxide (DMSO) and adding 1.1 μL of each dilution to the reaction system. As a control, 1.1 μL of DMSO was added to the reaction system.

Experiment [2] concerns Cdc2 (Cdk1) tyrosine-15 phosphorylation. The experiment in a line: Inhibitory effect on Cdc2 (Cdk1) tyrosine-15 phosphorylation in NCI-H1299 cells (Pharmacological Test 2). The class given is cell-based. To be noted: Homo sapiens, camptothecin 200 nM 16 hours, then test compound with nocodazole 8 hours, ELISA, read-out: Cdc2-Y15 Phosphorylation-Inhibitory Effect (H1299, +camptothecin) (EC50). An excerpt:
Pharmacological Test 2 (Method for Determining Drug Effect Using Cells (Inhibitory Effect on Cdc2 (Cdk1) Tyrosine-15 Phosphorylation))
Fetal bovine serum (FBS) was purchased from Morgate, Inc.; an RPMI-1640 medium and a DMEM medium were purchased from Invitrogen, Inc.; camptothecin was purchased from Sigma Co.; gemcitabine was purchased from Eli Lilly Japan K.K.; nocodazole and protease inhibitor cocktail were purchased from Sigma Co.; a rabbit anti-Cdc2 antibody and a mouse anti-Cdc2 antibody were purchased from Santa Cruz Biotechnology, Inc.; a rabbit anti-tyrosine-15-phosphorylated Cdc2 antibody and a horseradish peroxidase-labeled anti-mouse IgG antibody were purchased from Cell Signaling Technology, Inc.; and Sure Blue Reserve TMB peroxidase substrate was purchased from Kirkegaard & Perry Laboratories, Inc.
A human non-small cell lung cancer cell line (NCI-H1299) and a human colon cancer cell line (WiDr) can be obtained from American Type Culture Collection (ATCC).
In the method using NCI-H1299 cells, the cells were suspended in an RPMI-1640 medium supplemented with 10% FBS, and 100 μL of the resulting cell suspension was dispensed in a Nunclon Delta treated 96-well plastic plate purchased from Nunc, Inc. at a density of 2000 cells per well, and the plate was incubated overnight at 37° C. under an atmosphere of 5% CO2 and 95% air. Camptothecin was dissolved in dimethyl sulfoxide (DMSO) and further the resulting solution was diluted with an RPMI-1640 medium supplemented with 10% FBS. Then, 50 μL of the diluted solution was added to each well of the plate in which the cells were seeded in advance such that the final concentration of camptothecin was 200 nM, and the plate was incubated at 37° C. under an atmosphere of 5% CO2 and 95% air for 16 hours. A test compound was serially diluted with DMSO, and further diluted with an RPMI-1640 medium supplemented with 10% FBS containing 4000 nM nocodazole. Then, 50 μL of the test compound solution was added to each well of the plate in which the cells treated with camptothecin were seeded, and the plate was incubated at 37° C. under an atmosphere of 5% CO2 and 95% air for 8 hours. Then, the culture medium was removed from each well and 100 μL of a cell lysis buffer was added to each well, and the plate was shaken at 4° C. for 2 hours, and thereafter the liquid in the plate was frozen at −80° C. and then thawed, which was used as a lysed cell solution. Cdc2 and tyrosine-15-phosphorylated Cdc2 in this lysed cell solution were measured by an enzyme-linked immunosorbent assay (ELISA method), and a ratio of tyrosine-15-phosphorylated Cdc2 to Cdc2 was calculated to determine a 50% effective concentration (EC50, nM) of the test compound for inhibition of phosphorylation in cells. The cell lysis buffer as used herein is an aqueous solution containing 20 mM HEPES (pH 7.5), 150 mM sodium chloride, 1 mM disodium ethylenediamine tetraacetate, 0.1% polyoxyethylene (10) octylphenyl ether, 1% protease inhibitor cocktail, 1 mM dithiothreitol, 2 mM sodium orthovanadate, 10 mM sodium fluoride and 10 mM glycerol diphosphate. The measurement of Cdc2 by the ELISA method was carried out as follows. 50 μL of a solution of a rabbit anti-Cdc2 antibody obtained by diluting the antibody to 200 times with 50 mM carbonate-bicarbonate buffer (pH 9.6) was dispensed into each well of a 96-well Maxisorb immunoplate purchased from Nunc, Inc., and the immunoplate was let stand overnight at 4° C. to immobilize the antibody thereto. Subsequently, each well was washed three times with phosphate buffered saline (PBS), and 300 μL of PBS containing 5% bovine serum albumin (5% BSA/PBS) was added to each well, and then, the immunoplate was let stand at room temperature for 2 hours. […]
For orientation: An ELISA detects its analyte on a solid surface through an enzyme-linked reagent.

In general, IC50 refers to the midpoint of a concentration-inhibition curve. Low readings indicate greater potency, high ones weaker potency. As a reminder, the EC50 is the concentration needed to bring the measured effect to its halfway point.

Structures are written as SMILES.

T1 sequence (P30291 whole entry): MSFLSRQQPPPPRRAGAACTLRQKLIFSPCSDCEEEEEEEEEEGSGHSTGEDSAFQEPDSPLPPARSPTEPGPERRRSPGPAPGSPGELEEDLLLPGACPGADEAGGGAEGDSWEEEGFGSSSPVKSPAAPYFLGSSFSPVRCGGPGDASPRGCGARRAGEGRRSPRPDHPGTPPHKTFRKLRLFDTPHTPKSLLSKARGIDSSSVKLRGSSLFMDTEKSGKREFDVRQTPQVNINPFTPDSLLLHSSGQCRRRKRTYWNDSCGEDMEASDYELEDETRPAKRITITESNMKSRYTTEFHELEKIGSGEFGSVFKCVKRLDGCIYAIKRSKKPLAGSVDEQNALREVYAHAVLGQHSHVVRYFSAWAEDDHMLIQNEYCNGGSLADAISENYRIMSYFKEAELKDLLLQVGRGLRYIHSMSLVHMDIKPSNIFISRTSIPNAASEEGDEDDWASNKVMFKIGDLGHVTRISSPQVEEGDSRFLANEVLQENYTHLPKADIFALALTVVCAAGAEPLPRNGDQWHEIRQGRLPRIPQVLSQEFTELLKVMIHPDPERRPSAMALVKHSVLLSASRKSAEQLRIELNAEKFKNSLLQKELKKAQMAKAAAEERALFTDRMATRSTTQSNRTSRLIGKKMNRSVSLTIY

`CN1CCc2cc(Nc3ncc4c(=O)n5c(nc4n3)c3ccccc3n5-c3ncccn3)ccc2C1(C)C` [Example 103, 7-(pyrimidin-2-yl)-2-[(1,1,2-trimethyl-1,2,3,4-tetrahydroisoquinolin-6-yl)amino]pyrimido[4′,5′:4,5]pyrimido[1,2-b]indazol-5(7H)-one]: the half-inhibitory concentration (IC50) in experiment [1] came to 6.8 nM. In experiment [2], the EC50 was 31 nM.

As for `CN1CCc2cc(Nc3ncc4c(=O)n5c(nc4n3)c3ccccc3n5-c3nccs3)ccc2C1` [Example 136, 2-[(2-methyl-1,2,3,4-tetrahydroisoquinolin-6-yl)amino]-7-(1,3-thiazol-2-yl)pyrimido[4′,5′:4,5]pyrimido[1,2-b]indazol-5(7H)-one], 5.3 nM corresponded to half-maximal inhibition in experiment [1] (IC50). The EC50 in experiment [2] is 11 nM.

Regarding `CN1CCc2ccc(Nc3ncc4c(=O)n5c(nc4n3)c3ccccc3n5-c3nccs3)cc2C1` [Example 137, 2-[(2-methyl-1,2,3,4-tetrahydroisoquinolin-7-yl)amino]-7-(1,3-thiazol-2-yl)pyrimido[4′,5′:4,5]pyrimido[1,2-b]indazol-5(7H)-one], half-maximal inhibition in experiment [1] (IC50) was put at 6.1 nM. Also, the EC50 in experiment [2] stood at 17 nM.

For the compound `CN(C)CCN1CCOc2cc(Nc3ncc4c(=O)n5c(nc4n3)c3ccccc3n5-c3nccs3)ccc21` [Example 143, 2-({4-[2-(dimethylamino)ethyl]-3,4-dihydro-2H-1,4-benzoxazin-7-yl}amino)-7-(1,3-thiazol-2-yl)pyrimido[4′,5′:4,5]pyrimido[1,2-b]indazol-5(7H)-one], the IC50 in experiment [1] was found to be 15 nM. In experiment [2], the EC50 amounted to 190 nM.

The compound `CN(C)CCN1CCc2cc(Nc3ncc4c(=O)n5c(nc4n3)c3ccccc3n5-c3nccs3)ccc21` [Example 144, 2-({1-[2-(dimethylamino)ethyl]-2,3-dihydro-1H-indol-5-yl}amino)-7-(1,3-thiazol-2-yl)pyrimido[4′,5′:4,5]pyrimido[1,2-b]indazol-5(7H)-one] registered an IC50 in experiment [1] of 15 nM. Moreover, the EC50 in experiment [2] amounted to 190 nM.

`CN1CCN(c2ccc(Nc3ncc4c(=O)n5c(nc4n3)c3ccccc3n5-c3ccoc3)cc2)CC1` [Example 147, 7-(furan-3-yl)-2-{[4-(4-methylpiperazin-1-yl)phenyl]amino}pyrimido[4′,5′:4,5]pyrimido[1,2-b]indazol-5(7H)-one]: the IC50 in experiment [1] was 5.8 nM. For the same compound, the EC50 in experiment [2] was found to be 170 nM.

(Values after patent US8288396B2, “Pyrimidopyrimidoindazole derivative” (MSDKK, priority 2009, dated 2012).)
